Test results reported in patent publication US20210179591A1, “NEW COMPOUNDS FOR USE AS A THERAPEUTICALLY ACTIVE SUBSTANCE AND IN PARTICULAR FOR USE IN THE TREATMENT OF TUMORS” (ETH ZURICH, priority 2017, published 2021).
Like-named read-outs stand apart in the source and are kept apart here.

Columns and labels:
[1] = target: T1, GST-DYRK1B (Homo sapiens, UniProt Q9Y463); assay: IC50 determination of DYRK1B inhibitors (ADP-Glo in vitro kinase assay with DYRKtide); format: biochemical; details: ATP 100 μM
T1 construct: purchased ThermoFisher
Experimental: In a preferred embodiment, the compounds of the present invention show inhibition of DYRK1B and/or DYRK1A to a higher extent than expected by the skilled person. The inhibition may be expressed as IC50, i.e. the concentration necessary to inhibit activity to 50%. […] The IC50 value may be determined using methods such as those described in the examples. As such, a suitable method comprises the steps of incubating GST-DYRK1B (e.g. at 5 nM) and DYRKtide (e.g. at 50 μM) in kinase buffer, following compound dispensing (e.g. 1 μl), e.g. 2 μl of ATP (final concentration e.g. 100 μM) and incubating, preferably at room temperature. After that, a detectable compound such as ADP-Glo™ reagent can be dispensed and incubated, preferably at room temperature. Finally, Kinase Detection Reagent can be dispensed and the solution be incubated before measuring.
Compounds of formula 16, 12, 14, 10 and 19 inhibited DYRK1B (SEQ. ID. NO. 1) kinase activity with an IC50 of 2 μM, 2 μM, 3 μM, 4 μM and 3 μM respectively. Titration curves show average of n=3 independent experiments, average±SD.
GST-DYRK1B (5 nM) and DYRKtide (50 μM) (Lucerna-Chem AG, D96-58) diluted in kinase buffer were dispensed in white 384 well plate (3572, Corning, N.Y., USA) (2 μl/well). Following compound dispensing (1 μl), 2 μl of ATP (final concentration 100 μM) was added and incubated for 30 min at room temperature. After that, 5 μl of ADP-Glo™ reagent was dispensed and incubated for 40 min at room temperature. Finally, 10 ul of Kinase Detection Reagent was dispensed and incubated for 30 min before measuring the plate on a Tecan infinite M1000pro plate reader (Luminescence mode).

[2] = tested on: HT29 cells; assay: Immunoblot of p27 Ser10 phosphorylation in HT29 cells cultured in hypoxia; format: cell-based; details: FIG. 5b
Experimental: (§1) Cells were lysed in lysis buffer (50 mM Tris-HCl pH 7.5, 250 mM NaCl, 0.5% NP-40, 5 mM NaCl, 5 mM NaF, 5 mM EDTA, 0.5 mM EGTA). Protein were separated in 10% SDS/PAGE gels, as previously described. Ser^10-p27 (sc-12939-R) (1:500) and DYRK1B (sc-390417) (1:200) antibodies were purchased from Santa-Cruz, γ-TUBULIN (ab11316) (1:5000) from Abcam, p27 (610242) (1:500) from BD Biosciences and V5 (R960-25) from Life Technology.

[3] = tested on: HT29-HRE MTS (hypoxic cancer cells); assay: Compound treatment of multicellular tumor spheroids (MTS), SYTOX cell death in the hypoxic core; format: cell-based; details: FIGS. 4a to 4e
Experimental: DMSO was used as negative control, AZ191 as positive control and staurosporine (STS) as a general cytotoxic control. Whole MTS was visualized by Hoechst staining and cell death by SYTOX staining. Scale bar 200 μm. […] Average±SD of n>10 MTS from 3 biological replicates are shown. […] After 72h hours in culture, 10 μl of a mix of SYTOX Orange (S11368) (1:1000) and Hoechst 33258 (1 μM) diluted in DMEM was added to each well of the ULA plate and incubated overnight before image acquisition. MTS were imaged with a 5× objective on Zeiss observer Z.1 microscope equipped with an automated stage, with Hoechst channel used for autofocusing. For each well, images of Hoechst, YFP and SYTOX channels were acquired in the middle of the MTS. Images were analyzed with a custom ImageJ script. Briefly, Hoechst channel images were used to generate a mask of the MTS, which was then scaled to 1:3 and transferred to the SYTOX channel to measure the pixel intensity in the core area of the MTS. HT29-HRE solution (20,000 cells/ml) was dispensed in ULA plates (250 μl/well) and spun at 700 g for 5 min. After 48 h, MTS were treated with 10 μl of serial dilutions of AZ191, compound of formula 10 DMSO or STS. The next day a mix of Hoechst and SYTOX was added to the wells. MTS were then processed as described above.

[4] = target: T2, DYRK1B (Homo sapiens, UniProt Q9Y463); assay: In vitro kinase assay, immunoblot of p27 Ser10 phosphorylation by recombinant DYRK1B; format: biochemical; details: recombinant DYRK1B and p27, 100 μM ATP, FIG. 5a
T2 construct: purchased ThermoFisher
Experimental: as §1
28 ng of GST-DYRK1B (ThermoFisher, NP_004705) and 100 ng of GST-p27 were mixed in 45 μl of kinase buffer (50 mM HEPES (pH 7.5), 1 mM DTT, MgCl2, 0.004% Triton X-100). Serial dilution of AZ191, compound of formula 10 or DMSO were added to the mix and incubated for 5 min at room temperature. 100 μM of ATP was added to start the kinase reaction which was carried out with constant shaking at 30° C. for 30 min. The reaction was terminated by addition of Laemmli buffer and boiled 5 min at 95° C. Finally, the proteins were separated by SDS page and detected by immunoblotting.

[5] = IC50 values for selected examples, GST-DYRK1B 5 nM, DYRKtide 50 μM, read-out: IC50
[6] = average of n=3 independent experiments, read-out: IC50 of DYRK1B kinase activity inhibition (ADP-Glo titration curve)

T1 sequence (Q9Y463 whole entry): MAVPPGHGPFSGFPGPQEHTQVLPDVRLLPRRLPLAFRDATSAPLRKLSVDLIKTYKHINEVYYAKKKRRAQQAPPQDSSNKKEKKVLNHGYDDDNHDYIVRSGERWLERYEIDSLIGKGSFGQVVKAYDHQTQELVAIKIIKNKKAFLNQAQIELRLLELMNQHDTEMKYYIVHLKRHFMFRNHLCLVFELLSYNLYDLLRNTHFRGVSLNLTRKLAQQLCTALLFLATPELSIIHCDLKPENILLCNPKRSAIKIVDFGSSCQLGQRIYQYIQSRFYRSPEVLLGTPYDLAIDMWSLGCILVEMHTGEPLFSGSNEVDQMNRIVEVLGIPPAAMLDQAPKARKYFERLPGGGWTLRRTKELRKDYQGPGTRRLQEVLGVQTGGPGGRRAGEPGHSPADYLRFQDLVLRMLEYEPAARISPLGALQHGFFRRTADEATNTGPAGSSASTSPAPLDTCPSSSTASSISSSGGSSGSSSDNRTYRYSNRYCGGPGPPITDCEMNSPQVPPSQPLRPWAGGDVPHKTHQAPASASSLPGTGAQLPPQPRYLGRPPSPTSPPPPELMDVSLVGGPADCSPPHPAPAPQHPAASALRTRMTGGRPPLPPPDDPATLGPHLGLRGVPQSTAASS
T2 sequence (Q9Y463 whole entry): as above

| SMILES | IC50 [1, 5] | IC50 [1, 6] | further results |
| --- | --- | --- | --- |
| Cc1cccnc1CNc1nccc(-c2cnn(-c3ccccc3F)c2)n1 [4-[1-(2-fluorophenyl)-1H-pyrazol-4-yl]-N-[(3-methyl-2-pyridinyl)methyl]-2-pyrimidinamine] | 3.52 µM |  |  |
| COc1ccccc1-n1cc(-c2ccnc(NCc3cnc(C)cn3)n2)cn1 [4-[1-(2-methoxyphenyl)-1H-pyrazol-4-yl]-N-[(5-methyl-2-pyrazinyl)methyl]-2-pyrimidinamine] | 10.3 µM |  |  |
| OCCCCCNc1nccc(-c2cnn(-c3ccccc3F)c2)n1 [5-({4-[1-(2-fluorophenyl)-1H-pyrazol-4-yl]pyrimidin-2-yl}amino)pentan-1-ol] | 2 µM |  |  |
| Fc1ccccc1-n1cc(-c2ccnc(NCC(F)F)n2)cn1 [N-(2,2-difluoroethyl)-4-[1-(2-fluorophenyl)-1H-pyrazol-4-yl]pyrimidin-2-amine] | 6.98 µM |  |  |
| NCCCCCNc1nccc(-c2cnn(-c3ccccc3F)c2)n1 [N-{4-[1-(2-fluorophenyl)-1H-pyrazol-4-yl]pyrimidin-2-yl}pentane-1,5-diamine] | 3.97 µM |  |  |
| NCCCCCNc1nccc(-c2cnn(-c3ccc(F)cc3)c2)n1 [N-{4-[1-(4-fluorophenyl)-1H-pyrazol-4-yl]pyrimidin-2-yl}pentane-1,5-diamine, reference compound] | 15.6 µM |  |  |
| Fc1ccccc1-n1cc(-c2ccnc(NCc3ccncc3)n2)cn1 [compound of formula 10, 4-(1-(2-fluorophenyl)-1H-pyrazole-4-yl)-N-(pyridine-4-ylmethyl)pyrimidine-2-amine] |  | 4 µM | inhibition of phosphorylation of p27 at serine 10 in cells [2]: inhibited the phosphorylation of DYRK1B substrate p27 at serine 10; activity against hypoxic cancer cells [3]: high activity; inhibition of phosphorylation of DYRK1B substrate p27 at serine 10 [4]: inhibited the phosphorylation of DYRK1B substrate p27 at serine 10 |
| Fc1ccccc1-n1cc(-c2ccnc(NC3CCOCC3)n2)cn1 [compound of formula 12] |  | 2 µM |  |
| CCNc1nccc(-c2cnn(-c3ccccc3F)c2)n1 [compound of formula 14] |  | 3 µM |  |
| CC(Cc1ccncc1)Nc1nccc(-c2cnn(-c3ccccc3F)c2)n1 (centres unmarked) [compound of formula 16] |  | 2 µM |  |
| COc1ccccc1-n1cc(-c2ccnc(NCc3c(C)n[nH]c3C)n2)cn1 [compound of formula 19] |  | 3 µM |  |
